Values joined by “and” are separate entries in the source; they are usually repeats but may differ in a detail not shown here. Equal values may be shown once.
What was measured:
CD69+B220+ cells = test: B cell activation assay (IgD-stimulated splenocytes, CD69+B220+ cells by FACS); format: cell-based; settings: mouse splenocytes, IgD 3 μg/mL, 4 h; for CD69 @ 100 nM (% Inh): 100 nM compound
Experimental: 1 Female mouse approximately 2 months old was euthanized with CO2 and the spleen removed. The tissue was homogenized with a polished glass microscope slide. The cells were collected in 5 mL complete medium (RPMI+10% FBS+pen/strep), placed in a 15 mL falcon tube and centrifuged at 500×g for 5 min. The supernatant was discarded and the pellet was resuspended in 3 mL of ACK lysis buffer (NH4Cl 0.17M, KHCO3 10 mM, EDTA-Na2 0.1 mM, pH 7.2), incubated at 37° C. for 5 min. 2 mL complete medium was added and the mixture centrifuged at 500×g for 5 min. The supernatant was discarded and the pellet resuspended in 1 mL complete medium. The mixture was passed through a […] cell strainer and collect in 50 mL falcon tube. Enough medium was added to have a total of 10 mL. The cells were counted and seeded in 24 or 48-well plate in 1 mL complete medium at 10^6 cells/mL. The plate was placed in a 37° C. incubator for 15 min. The cells were treated for 30 min at 37° C. with 100 nM test compound dissolved in 100% DMSO. 3 μL IgD (Accurate chemical and scientific corp.) was added at a final concentration of 3 μg/mL and the mixture incubated at 37° C. for 4 h. The cells were collected in 1.5 mL eppendorf tubes, centrifuged at 500×g for 5 min and then resuspended in 100 μL of PBS+2% FBS. The following antibodies were added: α-B220 PE (pharmingen #553090), α-CD69 APC (pharmingen #60689), live/dead fixable aqua dead cell stain kit (life technologies #L34957) all at 1:300, and the mixture incubated for 15 min at 4° C. in the dark. To this was added 900 μL of PBS+2% FBS and the mixture centrifuged at 500×g for 5 min. The supernatant was removed and the pellet resuspended in 300 μL of PBS+2% FBS and mixed well. The mixture was transferred to a cytometer tube. The samples were run in the FACS Canto II cytometer and quantified by the number of CD69+B220+ cells as a percentage of the total number of B220+ alive cells.

PI3Kδ = target: T1, PI3Kδ (Homo sapiens, UniProt O00329); test: PI3Kδ kinase assay (HTRF, PIP3 detection); format: biochemical; settings: for PI3Kδ @ 0.01 μM (% Inh): 0.01 μM compound; for PI3Kδ @ 0.01 μM (% Inh) / PI3Kδ @ 0.1 μM (% Inh) / PI3Kδ @ 1 μM (% Inh): 10 μM ATP; for PI3Kδ @ 0.1 μM (% Inh): 0.1 μM compound; for IC50: 10 dose IC50, 10 μM ATP; for PI3Kδ @ 1 μM (% Inh): 1 μM compound
T1 construct: purchased Reaction Biology Corporation
T1 sequence (O00329 whole entry): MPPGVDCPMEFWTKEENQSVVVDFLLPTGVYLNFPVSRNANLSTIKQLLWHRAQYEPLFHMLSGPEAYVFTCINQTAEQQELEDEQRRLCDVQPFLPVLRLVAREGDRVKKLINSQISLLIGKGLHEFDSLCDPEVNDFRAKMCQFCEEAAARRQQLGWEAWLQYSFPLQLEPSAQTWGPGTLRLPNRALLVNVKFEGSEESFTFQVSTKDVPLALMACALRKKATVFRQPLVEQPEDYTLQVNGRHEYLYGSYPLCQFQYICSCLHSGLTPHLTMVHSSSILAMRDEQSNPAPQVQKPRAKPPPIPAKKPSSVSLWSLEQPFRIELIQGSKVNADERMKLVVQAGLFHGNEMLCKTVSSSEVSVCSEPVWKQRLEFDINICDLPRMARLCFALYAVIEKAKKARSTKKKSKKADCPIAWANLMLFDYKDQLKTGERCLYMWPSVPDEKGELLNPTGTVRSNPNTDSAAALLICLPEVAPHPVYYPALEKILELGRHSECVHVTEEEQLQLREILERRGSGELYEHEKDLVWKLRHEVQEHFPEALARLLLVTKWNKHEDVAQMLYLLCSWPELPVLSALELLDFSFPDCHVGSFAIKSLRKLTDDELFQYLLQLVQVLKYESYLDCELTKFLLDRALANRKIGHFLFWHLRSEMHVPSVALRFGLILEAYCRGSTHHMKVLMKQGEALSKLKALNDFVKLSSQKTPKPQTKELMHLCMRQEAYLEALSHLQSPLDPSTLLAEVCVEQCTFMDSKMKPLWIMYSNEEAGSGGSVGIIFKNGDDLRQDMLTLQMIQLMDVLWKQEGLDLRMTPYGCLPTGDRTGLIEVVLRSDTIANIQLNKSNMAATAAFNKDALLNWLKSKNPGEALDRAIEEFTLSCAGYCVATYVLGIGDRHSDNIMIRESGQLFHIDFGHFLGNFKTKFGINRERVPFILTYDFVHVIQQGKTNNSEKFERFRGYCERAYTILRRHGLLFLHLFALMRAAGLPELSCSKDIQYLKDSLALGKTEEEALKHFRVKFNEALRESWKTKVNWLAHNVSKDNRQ
T1 sequence (P27986 whole entry partner): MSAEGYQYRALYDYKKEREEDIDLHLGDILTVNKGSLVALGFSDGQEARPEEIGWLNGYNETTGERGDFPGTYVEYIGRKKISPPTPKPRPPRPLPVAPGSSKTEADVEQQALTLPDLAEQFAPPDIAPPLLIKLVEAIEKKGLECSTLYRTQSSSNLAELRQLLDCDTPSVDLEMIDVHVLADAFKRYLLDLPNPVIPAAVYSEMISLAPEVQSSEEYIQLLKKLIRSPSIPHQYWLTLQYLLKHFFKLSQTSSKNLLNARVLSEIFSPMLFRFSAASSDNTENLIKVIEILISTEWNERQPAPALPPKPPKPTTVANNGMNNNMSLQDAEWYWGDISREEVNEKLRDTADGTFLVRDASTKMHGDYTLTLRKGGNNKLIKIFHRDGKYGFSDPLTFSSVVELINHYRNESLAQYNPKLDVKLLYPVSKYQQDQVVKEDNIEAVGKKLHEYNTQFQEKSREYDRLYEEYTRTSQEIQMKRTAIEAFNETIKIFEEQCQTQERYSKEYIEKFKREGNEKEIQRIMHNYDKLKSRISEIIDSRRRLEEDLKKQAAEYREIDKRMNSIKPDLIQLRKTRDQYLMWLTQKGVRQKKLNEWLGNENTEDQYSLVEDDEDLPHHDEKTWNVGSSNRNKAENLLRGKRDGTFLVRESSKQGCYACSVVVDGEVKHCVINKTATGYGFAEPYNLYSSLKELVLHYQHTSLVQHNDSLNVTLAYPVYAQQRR
Outline: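 PIP3 formation read by loss of energy transfer as it displaces biotin-PIP3 from a Eu anti-GST/GST-PH/streptavidin-APC complex, calibrated against PIP3 standards.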

BTK = target: T2, BTK (Homo sapiens, UniProt Q06187); test: BTK kinase assay (HotSpot, 33P ATP); format: biochemical; settings: for BTK @ 0.01 μM (% Inh): 0.01 μM compound; for BTK @ 0.01 μM (% Inh) / BTK @ 0.1 μM (% Inh) / BTK @ 1 μM (% Inh): 10 μM ATP; for BTK @ 0.1 μM (% Inh): 0.1 μM compound; for BTK @ 1 μM (% Inh): 1 μM compound; for IC50: 10 dose IC50, 10 μM ATP
T2 construct: purchased Reaction Biology Corporation
T2 sequence (Q06187 whole entry): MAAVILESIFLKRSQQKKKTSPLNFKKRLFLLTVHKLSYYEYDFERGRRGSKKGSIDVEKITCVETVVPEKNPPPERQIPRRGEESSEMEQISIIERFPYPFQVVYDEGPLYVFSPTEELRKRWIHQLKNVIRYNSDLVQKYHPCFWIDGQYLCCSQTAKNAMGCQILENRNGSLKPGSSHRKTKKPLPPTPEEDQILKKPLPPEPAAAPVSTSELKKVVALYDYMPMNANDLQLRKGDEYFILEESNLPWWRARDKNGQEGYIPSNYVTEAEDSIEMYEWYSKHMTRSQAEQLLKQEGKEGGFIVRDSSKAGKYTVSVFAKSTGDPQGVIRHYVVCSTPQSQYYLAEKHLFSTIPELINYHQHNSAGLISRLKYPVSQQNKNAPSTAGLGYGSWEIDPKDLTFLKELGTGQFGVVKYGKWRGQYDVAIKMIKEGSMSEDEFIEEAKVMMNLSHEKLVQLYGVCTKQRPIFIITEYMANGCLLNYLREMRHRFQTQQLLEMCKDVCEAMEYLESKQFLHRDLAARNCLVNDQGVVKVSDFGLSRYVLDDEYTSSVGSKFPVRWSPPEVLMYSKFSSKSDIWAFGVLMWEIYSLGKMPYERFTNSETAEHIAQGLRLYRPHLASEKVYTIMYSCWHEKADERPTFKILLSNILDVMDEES
Outline: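 In 20 mM Hepes (pH 7.5) with 10 mM MgCl2, 1 mM EGTA, 0.1 mM Na3VO4, 2 mM DTT, 0.02% Brij35, 0.02 mg/mL BSA and 1% DMSO, kinase and substrate were exposed to ten compound doses for 15–20 min.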

Row | Structure (SMILES) | PI3Kδ @ 0.01 μM (% Inh) (PI3Kδ) | PI3Kδ @ 0.1 μM (% Inh) (PI3Kδ) | BTK @ 0.01 μM (% Inh) (BTK) | BTK @ 0.1 μM (% Inh) (BTK) | IC50 (CD69+B220+ cells; Splenocyte) [nM] | IC50 (PI3Kδ) | PI3Kδ @ 1 μM (% Inh) (PI3Kδ) | BTK @ 1 μM (% Inh) (BTK) | IC50 (BTK) | CD69 @ 100 nM (% Inh) (CD69+B220+ cells)
1 | Nc1cc(-c2nn(C3CCc4ccccc4C3)c3ncnc(N)c23)cc(F)c1F (centres unmarked) [compound 122, 3-(3-amino-4,5-difluorophenyl)-1-(1,2,3,4-tetrahydronaphthalen-2-yl)-1H-pyrazolo[3,4-d]pyrimidin-4-amine] | −3.68 | 25.32 | 12.72 | 53.15 | – | – | – | – | – | 2.58 ± 4.93 (n = 3) % Inh
2 | CNc1cc(-c2cn(C3Cc4ccccc4C3)c3ncnc(N)c23)cc(F)c1F [compound 113, 5-[3,4-difluoro-5-(methylamino)phenyl]-7-(2,3-dihydro-1H-inden-2-yl)-7H-pyrrolo[2,3-d]pyrimidin-4-amine] | 20.77 | 39.52 | 8.12 | 38.11 | – | – | – | – | – | 11.61 ± 11.81 (n = 3) % Inh
3 | Nc1ncnc2c1c(-c1ccc(C(F)(F)F)c(OCc3ccccc3)c1)nn2C1Cc2ccccc2C1 [Compound No. 43, 3-[3-(benzyloxy)-4-(trifluoromethyl)phenyl]-1-(2,3-dihydro-1H-inden-2-yl)-1H-pyrazolo[3,4-d]pyrimidin-4-amine] | – | 11.31 | – | 3.54 | – | – | 11.07 | −0.8 | – | –
4 | Nc1ncnc2c1c(-c1cccc(F)c1)nn2C1Cc2ccccc2C1 [Compound No. 88, 1-(2,3-dihydro-1H-inden-2-yl)-3-(3-fluorophenyl)-1H-pyrazolo[3,4-d]pyrimidin-4-amine] | 18.98 | 15.89 | 7.67 | 17.55 | – | – | – | – | – | –
5 | COc1ccc(-c2nn(C3CCc4ccccc4C3)c3ncnc(N)c23)cc1F (single isomer, unassigned) [Compound No. 14a, 3-(3-fluoro-4-methoxyphenyl)-1-(1,2,3,4-tetrahydronaphthalen-2-yl)-1H-pyrazolo[3,4-d]pyrimidin-4-amine] | – | – | – | – | – | 102 nM | – | – | 784 nM | –
6 | COc1cc(F)cc(-c2nn(C3Cc4ccccc4C3)c3ncnc(N)c23)c1 [compound 5, 1-(2,3-dihydro-1H-inden-2-yl)-3-(3-fluoro-5-methoxyphenyl)-1H-pyrazolo[3,4-d]pyrimidin-4-amine] | – | 25.0 | – | 26.26 | – | 2790 nM and 1220 nM | 54.63 | 76.16 | 1970 nM and 1100 nM | –
7 | Nc1ncnc2c1c(-c1cc(O)cc(F)c1)nn2C1CCCc2ccccc21 (centres unmarked) [compound 11, 3-(4-amino-1-tetralin-1-yl-pyrazolo[3,4-d]pyrimidin-3-yl)-5-fluoro-phenol] | – | 45.08 | – | 22.06 | – | – | – | – | – | –
8 | CCOc1cc(-c2nn(C3Cc4ccccc4C3)c3ncnc(N)c23)ccc1OC(F)(F)F [Compound No. 76, 1-(2,3-dihydro-1H-inden-2-yl)-3-[3-ethoxy-4-(trifluoromethoxy)phenyl]-1H-pyrazolo[3,4-d]pyrimidin-4-amine] | – | −13.69 | – | 5.47 | – | – | 13.55 | 6.5 | – | –
9 | Nc1ncnc2c1c(-c1ccc(F)c(O)c1)nn2C1CCc2ccccc21 (centres unmarked) [compound 10, 5-(4-amino-1-indan-1-yl-pyrazolo[3,4-d]pyrimidin-3-yl)-2-fluoro-phenol] | – | 22.39 | – | 58.79 | – | – | – | – | – | –
10 | Nc1ncnc2c(C3Cc4ccccc4C3)cn(-c3cc(O)c(F)c(F)c3)c12 [compound 137, 5-[4-amino-7-(2,3-dihydro-1H-inden-2-yl)-5H-pyrrolo[3,2-d]pyrimidin-5-yl]-2,3-difluorophenol] | 6.28 | 45.54 | 87.65 | 96.31 | – | – | – | – | – | –
11 | Nc1cc(-c2nn(C3Cc4ccccc4C3)c3ncnc(N)c23)ccc1F [Compound No. 87, 3-(3-amino-4-fluorophenyl)-1-(2,3-dihydro-1H-inden-2-yl)-1H-pyrazolo[3,4-d]pyrimidin-4-amine] | 13.47 | 8.16 | 34.28 | 78.95 | – | – | – | – | – | –
12 | Nc1ncnc2c1c(-c1ccc(CO)cc1)nn2C1Cc2ccccc2C1 [Compound No. 55, {4-[4-amino-1-(2,3-dihydro-1H-inden-2-yl)-1H-pyrazolo[3,4-d]pyrimidin-3-yl]phenyl}methanol] | – | 15.60 | – | 14.00 | – | 10400 nM | 48.96 | 50.29 | 2090 nM | –

Continued, in another order:

Row | PI3Kδ @ 0.01 μM (% Inh) (PI3Kδ) | PI3Kδ @ 0.1 μM (% Inh) (PI3Kδ) | BTK @ 0.01 μM (% Inh) (BTK) | BTK @ 0.1 μM (% Inh) (BTK) | IC50 (CD69+B220+ cells; Splenocyte) [nM] | IC50 (PI3Kδ) | PI3Kδ @ 1 μM (% Inh) (PI3Kδ) | BTK @ 1 μM (% Inh) (BTK) | IC50 (BTK) | Structure (SMILES) | CD69 @ 100 nM (% Inh) (CD69+B220+ cells)
13 | 59.11 | 88.87 | 1.82 | −0.78 | – | – | – | – | – | Nc1ncnc2c1c(-c1cc(O)c(F)c(C(F)(F)F)c1)nn2C1CCc2ccccc2C1 (centres unmarked) [compound 123, 5-[4-amino-1-(1,2,3,4-tetrahydronaphthalen-2-yl)-1H-pyrazolo[3,4-d]pyrimidin-3-yl]-2-fluoro-3-(trifluoromethyl)phenol] | 29.22 ± 4.64 (n = 3) % Inh
14 | 53.08 | 90.11 | −1.03 | −0.64 | 104.5 ± 0.7 | 0.269 nM | – | – | – | N#Cc1cc(-c2nn(C3CCc4ccccc4C3)c3ncnc(N)c23)cc(O)c1F (centres unmarked) [compound 130, 5-[4-amino-1-(1,2,3,4-tetrahydronaphthalen-2-yl)-1H-pyrazolo[3,4-d]pyrimidin-3-yl]-2-fluoro-3-hydroxybenzonitrile] | 67.53 ± 15.54 (n = 3) % Inh
15 | 79.16 | 95.72 | 19.01 | 65.15 | – | – | – | – | – | Nc1ncnc2c1c(-c1cc(O)c(Cl)c(Cl)c1)nn2C1Cc2ccccc2C1 [compound 118, 5-[4-amino-1-(2,3-dihydro-1H-inden-2-yl)-1H-pyrazolo[3,4-d]pyrimidin-3-yl]-2,3-dichlorophenol] | 44.32 ± 10.35 (n = 3) % Inh
16 | – | 15.27 | – | 14.0 | – | – | – | – | – | NC(=O)c1ccc(-c2nn(C3CCc4ccccc4C3)c3ncnc(N)c23)cc1 (centres unmarked) [compound 28, 4-(4-amino-1-tetralin-2-yl-pyrazolo[3,4-d]pyrimidin-3-yl)benzamide] | –
17 | 3.09 | 25.54 | 7 | 11.01 | – | – | – | – | – | COc1c(Cl)ccc(-c2nn(C3Cc4ccccc4C3)c3ncnc(N)c23)c1Cl [Compound No. 95, 3-(2,4-dichloro-3-methoxyphenyl)-1-(2,3-dihydro-1H-inden-2-yl)-1H-pyrazolo[3,4-d]pyrimidin-4-amine] | –
18 | – | – | – | – | – | 1340 nM | – | – | 891 nM | COc1cc(F)cc(-c2nn(C3CCc4ccccc4C3)c3ncnc(N)c23)c1 (centres unmarked) [compound 7, 3-(3-fluoro-5-methoxyphenyl)-1-(1,2,3,4-tetrahydronaphthalen-2-yl)-1H-pyrazolo[3,4-d]pyrimidin-4-amine] | –
19 | – | 10.65 | – | 16.91 | – | – | 31.35 | 30.02 | – | CC(=O)Nc1cc(F)cc(-c2nn(C3Cc4ccccc4C3)c3ncnc(N)c23)c1 [Compound No. 60, N-{3-[4-amino-1-(2,3-dihydro-1H-inden-2-yl)-1H-pyrazolo[3,4-d]pyrimidin-3-yl]-5-fluorophenyl}acetamide] | –

Source: US20210317140A1, “Heterocyclic Compounds and Methods of Use” (MEDIVATION TECHNOLOGIES, INC, priority 2013, published 2021)
